Data: patent publication US20240423888A1, “COSMETIC AND/OR DERMATOLOGICAL COMPOSITION COMPRISING AT LEAST ONE MEROCYANINE AND AT LEAST ASCORBIC ACID AND/OR A DERIVATIVE THEREOF” (L'OREAL, priority 2021, published 2024)

Tested on: normal human dermal fibroblasts (NHDF)
Assay: Procollagen I assay (ELISA) in culture medium of normal human dermal fibroblasts exposed to UVA, formulas spread on PMMA plates placed over the cells
Assay type: cell-based
Conditions: for Mean procollagen 1 (normalized by Cyquant signal and relative to the unexposed Control): 48 hours after last exposure
Experimental: The efficacy of a combination in accordance with the invention and outside the invention is tested by assaying procollagen 1 in a culture medium of normal human dermal fibroblasts exposed to UVA.
• Normal human dermal fibroblasts (NHDF) obtained from a mammary plasty. • Culture: 37° C., 5% CO2. • Culture medium and test medium: MEM (Gibco 21090-022) containing 10% foetal calf serum (FCS) (Gibco 10270-098), 2 mM L-glutamine (Gibco 25030-024), 1 mM sodium pyruvate (Gibco 11360-039), 1× non-essential amino acids (Gibco 11140-035), 250 ng/ml amphotericin B (Gibco 15290-018) and penicillin/streptomycin 20 U/20 […].
The normal human dermal fibroblasts were seeded in complete MEM medium and incubated for 72 h at 37° C. and 5% CO2.
The cells are then exposed for 3 consecutive days to a dose of 25 J/cm^2 of total UVA using an Oriel solar simulator fitted with a WG335 filter. Depending on the conditions, a PMMA plate to which the formula comprising the screening agents according to the invention or outside the invention or the Placebo formula is applied is placed over the cells during exposure. After each exposure, the cells are treated or not with ascorbic acid (10 μM) diluted in the culture medium. The cells are then incubated at 37° C., 5% CO2. 48 hours after the last exposure, a cell viability test (XTT Roche cat. 11465015001) is performed, and the number of cells in each well is evaluated by means of a Cyquant assay (Molecular Probes C7026). The media are collected and a procollagen I assay is performed by ELISA (Abcam ab210966). Each experimental condition is performed in duplicate or triplicate and at least three independent experiments are performed.

[1] = 25 J/cm^2 total UVA on 3 consecutive days, formula 1.3 mg/cm^2 on PMMA plate over the cells, ascorbic acid 10 μM where given

O=C1O[C@H]([C@@H](O)CO)C(O)=C1O [VitC, ascorbic acid]
relative % relative to the control 0 J (0 J/cm^2 (unexposed), ascorbic acid 10 μM): +260.5%
Mean procollagen 1 (normalized by Cyquant signal and relative to the unexposed Control) (0 J/cm^2 (unexposed), ascorbic acid 10 μM, unexposed Control = 100): 360.5
relative % relative to the control 0 J [1]: +29.7%
Mean procollagen 1 (normalized by Cyquant signal and relative to the unexposed Control) [1]: 129.7
secretion of procollagen 1 by the fibroblasts (ascorbic acid tested at 10 μM, result in words): significantly increased
ability of ascorbic acid to induce procollagen 1 secretion (effect of UVA, result in words): significantly reduced
